Laboratory results: US8507489B2, “Bicyclic triazoles as protein kinase modulators” (SGX Pharmaceuticals, Inc., priority 2006, dated 2013)
pIC50: −log10 of the molar value.

How the values were obtained:
Type in all cases: biochemical
AURKA (Aurora A) = AURKA (Aurora A) (Homo sapiens, UniProt O14965); assay: SelectScreen Kinase Profiling AURKA
Excerpt: (§1) SelectScreen™ is a trademark screening assay protocol for kinases developed by Invitrogen Corporation, Madison, Wis. Details on assay conditions can be found on the company's website.

PDGFRA T674I = PDGFRA T674I (Homo sapiens, UniProt P16234, T674I); assay: SelectScreen Kinase Profiling PDGFRA T674I
Excerpt: as §1

ABL1 Y253F = ABL1 Y253F (Homo sapiens, UniProt P00519, Y253F); assay: SelectScreen Kinase Profiling ABL1 Y253F
Excerpt: as §1

IKBKB (IKK beta) = IKBKB (IKK beta) (Homo sapiens, UniProt O14920); assay: SelectScreen Kinase Profiling IKBKB
Excerpt: as §1

MST1R (RON) = MST1R (RON) (Homo sapiens, UniProt Q04912); assay: SelectScreen Kinase Profiling MST1R
Chain of MST1R (RON) (Q04912 25-1400): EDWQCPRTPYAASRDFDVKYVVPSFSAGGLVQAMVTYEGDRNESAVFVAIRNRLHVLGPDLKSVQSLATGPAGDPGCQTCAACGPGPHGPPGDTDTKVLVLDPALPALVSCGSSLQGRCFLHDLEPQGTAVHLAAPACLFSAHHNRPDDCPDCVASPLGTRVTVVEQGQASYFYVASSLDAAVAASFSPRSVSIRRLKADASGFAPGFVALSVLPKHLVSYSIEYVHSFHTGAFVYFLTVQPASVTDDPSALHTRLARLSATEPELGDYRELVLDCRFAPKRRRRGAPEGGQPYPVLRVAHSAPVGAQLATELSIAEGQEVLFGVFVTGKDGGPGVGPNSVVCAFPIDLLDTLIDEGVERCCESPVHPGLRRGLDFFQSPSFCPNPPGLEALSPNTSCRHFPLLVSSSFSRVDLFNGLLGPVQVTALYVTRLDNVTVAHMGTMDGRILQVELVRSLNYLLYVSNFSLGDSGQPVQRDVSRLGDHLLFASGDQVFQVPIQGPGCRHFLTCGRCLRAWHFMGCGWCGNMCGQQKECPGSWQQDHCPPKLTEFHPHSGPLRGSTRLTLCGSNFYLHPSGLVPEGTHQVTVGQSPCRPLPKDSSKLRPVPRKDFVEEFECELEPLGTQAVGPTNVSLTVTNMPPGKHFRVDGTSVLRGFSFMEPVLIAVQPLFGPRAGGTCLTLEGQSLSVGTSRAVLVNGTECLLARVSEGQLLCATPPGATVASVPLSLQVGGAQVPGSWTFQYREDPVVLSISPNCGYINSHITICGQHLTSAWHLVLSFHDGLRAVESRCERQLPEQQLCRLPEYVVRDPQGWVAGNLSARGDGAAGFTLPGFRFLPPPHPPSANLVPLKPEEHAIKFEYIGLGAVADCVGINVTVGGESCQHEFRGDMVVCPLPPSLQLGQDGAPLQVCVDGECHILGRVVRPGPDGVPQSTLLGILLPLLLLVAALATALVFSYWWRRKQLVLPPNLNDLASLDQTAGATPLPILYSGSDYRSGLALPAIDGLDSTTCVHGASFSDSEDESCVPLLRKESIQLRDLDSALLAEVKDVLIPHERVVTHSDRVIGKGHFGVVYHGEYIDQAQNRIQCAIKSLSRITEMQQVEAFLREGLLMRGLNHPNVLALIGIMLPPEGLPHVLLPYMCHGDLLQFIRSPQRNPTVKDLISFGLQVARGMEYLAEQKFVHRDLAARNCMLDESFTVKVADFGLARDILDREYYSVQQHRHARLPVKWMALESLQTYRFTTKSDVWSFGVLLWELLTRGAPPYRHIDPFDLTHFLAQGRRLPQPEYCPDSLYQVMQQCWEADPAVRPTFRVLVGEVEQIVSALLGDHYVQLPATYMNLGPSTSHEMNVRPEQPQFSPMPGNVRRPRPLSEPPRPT
Excerpt: as §1

ABL1 T315I = ABL1 T315I (Homo sapiens, UniProt P00519, T315I); assay: SelectScreen Kinase Profiling ABL1 T315I
Excerpt: as §1

CSF1R (FMS) = CSF1R (FMS) (Homo sapiens, UniProt P07333); assay: SelectScreen Kinase Profiling CSF1R
Excerpt: as §1

FGFR3 = FGFR3 (Homo sapiens, UniProt P22607); assay: SelectScreen Kinase Profiling FGFR3
Chain of FGFR3 (P22607 23-806): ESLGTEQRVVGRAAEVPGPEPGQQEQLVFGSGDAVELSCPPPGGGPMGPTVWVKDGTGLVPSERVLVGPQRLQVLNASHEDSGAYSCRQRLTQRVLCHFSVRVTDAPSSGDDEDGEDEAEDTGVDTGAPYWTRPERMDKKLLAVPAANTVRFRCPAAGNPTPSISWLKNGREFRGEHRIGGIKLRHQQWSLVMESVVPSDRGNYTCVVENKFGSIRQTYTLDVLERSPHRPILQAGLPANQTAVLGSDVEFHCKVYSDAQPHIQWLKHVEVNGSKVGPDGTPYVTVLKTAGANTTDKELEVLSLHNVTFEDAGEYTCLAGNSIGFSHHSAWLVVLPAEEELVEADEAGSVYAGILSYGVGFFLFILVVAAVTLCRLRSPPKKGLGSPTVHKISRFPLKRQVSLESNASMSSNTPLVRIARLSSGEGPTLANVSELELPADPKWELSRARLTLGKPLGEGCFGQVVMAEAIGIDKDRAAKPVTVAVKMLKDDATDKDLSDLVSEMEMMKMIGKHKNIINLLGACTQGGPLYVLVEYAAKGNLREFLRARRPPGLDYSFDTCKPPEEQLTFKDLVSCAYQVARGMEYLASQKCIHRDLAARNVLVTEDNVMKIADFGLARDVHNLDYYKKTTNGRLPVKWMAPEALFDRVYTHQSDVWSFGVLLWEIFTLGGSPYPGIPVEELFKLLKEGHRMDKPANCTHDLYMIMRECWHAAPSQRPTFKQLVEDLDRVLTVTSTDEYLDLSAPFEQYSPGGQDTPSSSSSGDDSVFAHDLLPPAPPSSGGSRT
Excerpt: as §1

MAP4K4 (HGK) = MAP4K4 (HGK) (Homo sapiens, UniProt O95819); assay: SelectScreen Kinase Profiling MAP4K4
Chain of MAP4K4 (HGK) (O95819 whole entry): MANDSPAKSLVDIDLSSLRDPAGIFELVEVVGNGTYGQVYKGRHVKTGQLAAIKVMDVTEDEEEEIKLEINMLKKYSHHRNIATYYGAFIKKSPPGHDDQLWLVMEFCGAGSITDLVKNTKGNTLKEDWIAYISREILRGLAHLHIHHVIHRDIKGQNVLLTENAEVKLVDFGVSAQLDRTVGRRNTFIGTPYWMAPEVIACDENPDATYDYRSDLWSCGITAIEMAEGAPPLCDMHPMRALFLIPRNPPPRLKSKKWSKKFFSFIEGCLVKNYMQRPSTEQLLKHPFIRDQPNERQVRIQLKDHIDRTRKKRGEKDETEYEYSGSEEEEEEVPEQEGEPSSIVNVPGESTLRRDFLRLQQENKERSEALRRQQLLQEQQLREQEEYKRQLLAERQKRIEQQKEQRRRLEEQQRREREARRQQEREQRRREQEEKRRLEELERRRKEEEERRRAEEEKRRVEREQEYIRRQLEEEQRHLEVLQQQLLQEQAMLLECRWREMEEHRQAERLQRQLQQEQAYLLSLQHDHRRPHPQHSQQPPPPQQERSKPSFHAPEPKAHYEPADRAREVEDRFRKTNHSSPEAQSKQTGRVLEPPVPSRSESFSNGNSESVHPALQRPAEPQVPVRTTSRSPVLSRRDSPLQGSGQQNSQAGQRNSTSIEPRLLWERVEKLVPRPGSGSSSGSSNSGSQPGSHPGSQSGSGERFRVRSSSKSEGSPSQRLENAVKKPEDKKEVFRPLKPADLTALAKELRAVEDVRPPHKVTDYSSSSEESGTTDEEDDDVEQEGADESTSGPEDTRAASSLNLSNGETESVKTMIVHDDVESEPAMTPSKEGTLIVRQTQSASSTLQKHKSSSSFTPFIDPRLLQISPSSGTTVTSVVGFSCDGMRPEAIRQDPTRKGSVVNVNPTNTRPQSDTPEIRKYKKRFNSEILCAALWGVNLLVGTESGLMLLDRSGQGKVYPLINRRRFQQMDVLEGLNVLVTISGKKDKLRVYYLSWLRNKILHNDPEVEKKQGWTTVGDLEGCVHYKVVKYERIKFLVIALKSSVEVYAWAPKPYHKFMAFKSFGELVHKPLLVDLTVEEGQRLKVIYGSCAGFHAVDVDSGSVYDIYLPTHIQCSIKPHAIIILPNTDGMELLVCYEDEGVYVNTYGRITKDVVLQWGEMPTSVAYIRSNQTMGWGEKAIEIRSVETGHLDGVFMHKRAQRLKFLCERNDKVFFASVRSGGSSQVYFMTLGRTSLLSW
Excerpt: as §1

PRKCD (PKC delta) = PRKCD (PKC delta) (Homo sapiens, UniProt Q05655); assay: SelectScreen Kinase Profiling PRKCD
Chain of PRKCD (PKC delta) (Q05655 whole entry): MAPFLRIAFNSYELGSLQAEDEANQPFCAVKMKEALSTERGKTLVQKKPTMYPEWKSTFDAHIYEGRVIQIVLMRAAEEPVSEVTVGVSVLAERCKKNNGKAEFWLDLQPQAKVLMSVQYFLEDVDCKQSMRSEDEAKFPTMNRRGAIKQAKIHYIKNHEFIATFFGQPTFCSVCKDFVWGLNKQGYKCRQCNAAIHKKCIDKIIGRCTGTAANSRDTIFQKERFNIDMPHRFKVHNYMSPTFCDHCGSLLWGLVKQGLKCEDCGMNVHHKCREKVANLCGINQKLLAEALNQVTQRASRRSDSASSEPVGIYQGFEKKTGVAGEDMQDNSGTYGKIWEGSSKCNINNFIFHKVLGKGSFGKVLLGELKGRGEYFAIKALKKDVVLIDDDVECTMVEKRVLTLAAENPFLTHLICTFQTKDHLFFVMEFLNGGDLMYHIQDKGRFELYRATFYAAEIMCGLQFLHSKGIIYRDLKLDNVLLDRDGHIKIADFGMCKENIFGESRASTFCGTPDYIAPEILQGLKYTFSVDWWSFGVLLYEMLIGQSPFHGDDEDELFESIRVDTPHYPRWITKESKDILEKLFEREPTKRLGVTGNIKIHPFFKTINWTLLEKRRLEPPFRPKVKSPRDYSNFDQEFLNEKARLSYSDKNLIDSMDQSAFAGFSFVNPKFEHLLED
Excerpt: as §1

TEK (Tie2) = TEK (Tie2) (Homo sapiens, UniProt Q02763); assay: SelectScreen Kinase Profiling TEK
Excerpt: as §1

HCK = HCK (Homo sapiens, UniProt P08631); assay: SelectScreen Kinase Profiling HCK
Excerpt: as §1

GSK3B (GSK3 beta) = GSK3B (GSK3 beta) (Homo sapiens, UniProt P49841); assay: SelectScreen Kinase Profiling GSK3B
Excerpt: as §1

MAP2K1 (MEK1) = MAP2K1 (MEK1) (Homo sapiens, UniProt Q02750); assay: SelectScreen Kinase Profiling MAP2K1
Chain of MAP2K1 (MEK1) (Q02750 whole entry): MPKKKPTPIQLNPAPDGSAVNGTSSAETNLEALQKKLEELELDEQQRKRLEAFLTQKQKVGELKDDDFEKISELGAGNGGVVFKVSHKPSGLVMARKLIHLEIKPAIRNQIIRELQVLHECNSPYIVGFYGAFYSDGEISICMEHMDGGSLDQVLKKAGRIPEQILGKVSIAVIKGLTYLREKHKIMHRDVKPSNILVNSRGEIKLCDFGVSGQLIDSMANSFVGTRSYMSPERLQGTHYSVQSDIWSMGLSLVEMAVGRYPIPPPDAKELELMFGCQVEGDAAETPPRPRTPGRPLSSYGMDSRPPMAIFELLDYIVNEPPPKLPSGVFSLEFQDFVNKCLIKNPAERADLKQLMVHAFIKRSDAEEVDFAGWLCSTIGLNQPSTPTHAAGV
Excerpt: as §1

c-MET = c-MET (Homo sapiens, UniProt P08581); assay: MET luminescence-based enzyme assay (Kinase-Glo)
Description: The subscript designates positive or negative controls. The Z′ score for a robust screening assay should be ≧0.50. The typical threshold=μ+−3*σ+. Any value that falls below the threshold was designated a “hit”.
MET Luminescence-Based Enzyme Assay
MET kinase (see below), Kinase-Glo™ (Promega Cat#V6712).
Negative controls contained 10 μM staurosporine.

MET (cMet) = MET (cMet) (Homo sapiens, UniProt P08581); assay: SelectScreen Kinase Profiling MET
Excerpt: as §1

FRAP1 (mTOR) = FRAP1 (mTOR) (Homo sapiens, UniProt P42345); assay: SelectScreen Kinase Profiling FRAP1
Excerpt: as §1

KDR (VEGFR2) = KDR (VEGFR2) (Homo sapiens, UniProt P35968); assay: SelectScreen Kinase Profiling KDR
Excerpt: as §1

MET M1250T = MET M1250T (Homo sapiens, UniProt P08581, M1250T); assay: SelectScreen Kinase Profiling MET M1250T
Excerpt: as §1

Chain of AURKA (Aurora A) (O14965 whole entry): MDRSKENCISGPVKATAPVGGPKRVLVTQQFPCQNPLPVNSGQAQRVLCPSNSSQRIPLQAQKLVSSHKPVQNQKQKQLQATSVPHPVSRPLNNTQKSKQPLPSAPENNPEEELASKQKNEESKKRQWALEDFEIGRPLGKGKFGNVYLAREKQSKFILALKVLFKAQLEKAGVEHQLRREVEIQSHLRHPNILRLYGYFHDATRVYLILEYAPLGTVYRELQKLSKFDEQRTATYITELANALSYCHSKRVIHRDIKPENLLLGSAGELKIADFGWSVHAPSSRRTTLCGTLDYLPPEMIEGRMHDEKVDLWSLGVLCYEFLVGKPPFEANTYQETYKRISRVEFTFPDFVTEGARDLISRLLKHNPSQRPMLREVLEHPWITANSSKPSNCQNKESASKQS

| SMILES | inhibition at 1 µM (AURKA (Aurora A)) [%] | inhibition at 1 µM (PDGFRA T674I) [%] | inhibition at 1 µM (ABL1 Y253F) [%] | inhibition at 1 µM (IKBKB (IKK beta)) [%] | inhibition at 1 µM (MST1R (RON)) [%] | inhibition at 1 µM (ABL1 T315I) [%] | inhibition at 1 µM (CSF1R (FMS)) [%] | inhibition at 1 µM (FGFR3) [%] | inhibition at 1 µM (MAP4K4 (HGK)) [%] | inhibition at 1 µM (PRKCD (PKC delta)) [%] | inhibition at 1 µM (TEK (Tie2)) [%] | inhibition at 1 µM (HCK) [%] | inhibition at 1 µM (GSK3B (GSK3 beta)) [%] | inhibition at 1 µM (MAP2K1 (MEK1)) [%] | pIC50 (c-MET) | inhibition at 1 µM (MET (cMet)) [%] | inhibition at 1 µM (FRAP1 (mTOR)) [%] | inhibition at 1 µM (KDR (VEGFR2)) [%] | inhibition at 1 µM (MET M1250T) [%] |
| --- | --- | --- | --- | --- | --- | --- | --- | --- | --- | --- | --- | --- | --- | --- | --- | --- | --- | --- | --- |
| Cn1cc(-c2ccc3nnc(Sc4ccc5ncccc5c4)n3n2)cn1 [Compound 4, 6-[6-(1-Methyl-1H-pyrazol-4-yl)-[1,2,4]triazolo[4,3-b]pyridazin-3-ylsulfanyl]-quinoline] | 18 | -9 | 20 | -5 | 9 | 11 | 19 | -4 | -1 | 4 | 8 | 8 | 5 | 16 |  |  |  |  |  |
| Cc1ccc2nnc(Sc3ccc4ncc(-c5cnn(C)c5)cc4c3)n2n1 [Compound 41, 3-(1-Methyl-1H-pyrazol-4-yl)-6-(6-methyl-[1,2,4]triazolo[4,3-b]pyridazin-3-ylsulfanyl)-quinoline] | 49 | -1 | 30 | 1 | 53 | 47 | 79 | 26 | 27 | 5 | 4 | 9 | 1 | 3 | > 7.00 | 98 | 0 | 16 | 89 |
